Experiments:
PPAR α = target: T1, PPAR α (Homo sapiens, UniProt Q07869); test: PPAR α activation, tkPPRE-luciferase reporter in transfected CV-1 cells; format: cell-based; conditions: 24 hours
T1 construct: expressed in transfected cells; host or cells: CV-1 cells
T1 sequence (Q07869 1-468): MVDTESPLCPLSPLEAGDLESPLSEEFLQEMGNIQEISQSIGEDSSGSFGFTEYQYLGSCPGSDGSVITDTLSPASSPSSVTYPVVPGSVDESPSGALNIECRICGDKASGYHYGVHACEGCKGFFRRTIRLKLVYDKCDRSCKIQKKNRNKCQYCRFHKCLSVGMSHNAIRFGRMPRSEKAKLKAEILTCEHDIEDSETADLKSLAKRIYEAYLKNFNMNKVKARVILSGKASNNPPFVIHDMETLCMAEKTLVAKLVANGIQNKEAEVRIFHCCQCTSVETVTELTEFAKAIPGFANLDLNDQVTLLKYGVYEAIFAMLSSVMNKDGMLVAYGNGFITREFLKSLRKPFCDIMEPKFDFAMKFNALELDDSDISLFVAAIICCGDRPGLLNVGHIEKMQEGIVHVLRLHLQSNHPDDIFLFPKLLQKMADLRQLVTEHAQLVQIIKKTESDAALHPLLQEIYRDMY
T1 sequence (P19793 1-462 partner): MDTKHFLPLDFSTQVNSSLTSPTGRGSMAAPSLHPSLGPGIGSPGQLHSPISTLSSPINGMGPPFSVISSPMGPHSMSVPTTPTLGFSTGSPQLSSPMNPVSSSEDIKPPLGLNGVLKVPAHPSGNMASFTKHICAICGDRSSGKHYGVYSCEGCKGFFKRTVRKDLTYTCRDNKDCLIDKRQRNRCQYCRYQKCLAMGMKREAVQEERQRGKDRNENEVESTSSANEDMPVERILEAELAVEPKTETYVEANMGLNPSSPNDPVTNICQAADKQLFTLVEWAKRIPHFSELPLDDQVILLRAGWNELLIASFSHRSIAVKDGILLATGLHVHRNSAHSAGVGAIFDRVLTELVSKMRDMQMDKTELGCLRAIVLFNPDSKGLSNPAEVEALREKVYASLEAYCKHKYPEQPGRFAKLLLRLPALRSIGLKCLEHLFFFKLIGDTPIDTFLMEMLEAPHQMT
Protocol: To determine the regulating activity of the compound prepared by Example 1 on the PPAR α activation, following experiment was performed.
CV-1 cells were transiently cotransfected with both tkPPRE-luciferase and pCMV-PPAR α, together with pCMV-RXR and pCMV-β-Gal as a transfection control. Cells were treated with DHCA or various fractions, i.e. hexane and ethylacetate fractions obtained from this Cucurbitaceae family plant extract at the concentration of 100 ug/ml. Cells were also treated with DMSO or fenofibrate (100 uM, Sigma Co.), which is a well known agonist of PPARα. After 24 hours, cell lysates were prepared for the luciferase assay, and the activities were normalized to β-Gal activities.

Preadipocytes (3T3-L1) = test: Inhibition of adipocyte differentiation and triglyceride level (Oil Red O staining); format: cell-based
Protocol: To determine the inhibiting activity of the compound prepared by Examples 1, i.e., dehydrodiconiferylalcohol (DHCA), on the adipocytes differentiation and triglyceride level, following experiment was performed.
Preadipocytes (3T3-L1) purchased from ATCC (American […], USA) were cultured in RPMI medium containing 10% FBS and MDI cocktail (isobutylmethylxanthine, dexamethasone, insulin) was added thereto for differentiating into mature adipocytes. After two days, the medium was replaced and treated with only insulin. Thereafter, the medium was replaced and equal concentration of insulin was treated again every other day. DHCA ranging from 10 to 1000 ug/ml of the concentrations was treated when the adipocyte differentiation was induced and equal concentration of the DHCA was treated at every replacement of the medium. Troglitazone (Sigma Co.) and 10 uM SB203580 (Sigma Co.) were treated as control groups and 0.01% ethanol was used as a vehicle control. After eight days lapsed, the accumulated fat within differentiated cell was stained with Oil Red 0 staining reagent and the absorbance was determined with optical density qualitatively at 490 nm. The inhibition percentage (%) was calculated by following Empirical Formula 1. The Inhibition Percentage (%)=[O.D. of test group]/[O.D. value of control group]×100 Empirical Formula 1

increase of luciferase activity as compared with control (PPAR α; 100 ug/ml, normalized to β-Gal): 10 folds
Structure (SMILES): COc1cc(C2Oc3c(OC)cc(/C=C/CO)cc3C2CO)ccc1O (stereo not shown) [DHCA, dehydrodiconiferyl alcohol]
magnitude of PPAR α activation compared with fenofibrate (PPAR α; DHCA 100 ug/ml vs fenofibrate 100 uM): higher than that of fenofibrate treated cells | anti-adipogenic activity compared with SB203580 (Preadipocytes (3T3-L1); 3T3-L1, SB203580 10 uM as control): comparable to that of SB203580 | level of produced triglycerides and adipocytes differentiation (Preadipocytes (3T3-L1); 3T3-L1 induced with MDI, 8 days, Oil Red O, O.D. 490 nm, DHCA 10 to 1000 ug/ml): significantly reduced in a dose dependent manner

— patent US7884129B2, “Composition comprising the alcohol compound isolated from the extract of cucurbitaceae family plant having anti-adipogenic and anti-obesity activity” (Helixir Co., Ltd., priority 2003, dated 2011)
